Data set [1] deals with Bacillus subtilis var. niger spores. It is filed as cell-based. Conditions: for spore strips sterilized: room temperature (Example 6). On the procedure: The sterilization potential of genipin was measured by treating B. subtilis mini spore strips with 1.2×10^6 bacterial spores (ATCC 9372, North American Science Associates, Inc., Northwood, Ohio) with 0.5 mL of sterile 1:1 dimethyl sulfoxide (Avantor Performance Materials, Inc., Center Valley, Pa.): phosphate-buffered saline (Fisher Scientific, Pittsburgh, Pa.) (DMSO: PBS, v/v); 2%, 6%, and 10% genipin in 1:1 DMSO:PBS; and 10% formalin (Fisher Scientific, Pittsburgh, Pa.) (N=4 per group). Genipin treatments corresponded to 8.3 mg, 25 mg, and 42 mg genipin per 10^6 spores for the 2%, 6%, and 10% groups, respectively. Treatment was conducted at room temperature, 20-25° C., for 24 hours and 72 hours. Spore strips were subsequently washed with sterile water and aseptically transferred to Releasat® rapid-readout color changing vials (SGM Biotech, Bozeman, Mont.) which have soybean-casein digest medium with the pH indicator phenol red, designed to change color from orange to yellow in the presence of spore germination and proliferation. Spores were incubated for one week at 37° C.
B. subtilis mini spores strips with 1.2×10^6 spores were treated with 0.5 mL of sterile PBS and 1:1 DMSO:PBS without genipin; 0.03%, 0.32%, and 0.63% genipin in 1:1 DMSO: PBS; 0.63% genipin in PBS; and 10% formalin for 72 hours at room temperature (N=4 per group). Genipin treatments corresponded to 0.13 mg, 1.3 mg, and 2.6 mg genipin per 10^6 spores for the 0.03%, 0.32%, and 0.63% groups, respectively. Spore strips were subsequently washed with sterile water, aseptically transferred to Releasat® vials, and incubated for one week at 37° C.
B. subtilis mini spores strips with 1.2×10^6 spores were treated with 0.5 mL of sterile 1:1 DMSO:PBS without genipin; 0.63%, 2%, 6%, and 10% genipin in 1:1 DMSO:PBS; and 10% formalin for 72 hours at room temperature (N=4 per group). Spore strips were subsequently washed with sterile water, aseptically transferred to Releasat® vials, and incubated for one week at 37° C.
A priori power analysis was performed with G*Power (G*Power 3.1.3, Kiel, Germany). To detect at least a one-log difference in population assays, comparing groups at an α=0.05 and power >0.999 required N=3 per group. One-tailed Mann-Whitney U tests were performed for comparing population assay groups. Chi squared tests and binomial exact confidence intervals were performed comparing spore viability against expected spore counts for dichotomous (sterile, non-sterile) growth in medium based on the manufacturer's certificate of analysis (COA), and the population assays (PA, for B. subtilis only), using Minitab 16 (Minitab, Inc., State College, Pa.). Statistical significance was set at p≦0.05.

The test system is the same in data set [2]. It is filed as cell-based. Conditions: for colonies at the 1-log reduction level: 72 hours, room temperature. As for the experimental part:
B. subtilis mini spores strips with 1.2×10^6 spores were treated with 0.5 mL of sterile PBS; 1:1 DMSO:PBS without genipin; 0.63%, 2%, 6%, and 10% genipin in 1:1 DMSO:PBS; and 10% formalin for 72 hours at room temperature (N=4 per group). Spore strips were then washed with sterile water and then aseptically macerated, serially diluted, and plated onto petri dishes with soybean-casein digest agar (Mo Bio Laboratories, Carlsbad, Calif.). Spores were incubated for 48 hours at 32.5° C. after which time colony counts were performed.

Data set [3] has as its system Geobacillus stearothermophilus spores. Kind of data set: Spore strip sterilization, soybean-casein medium. It is filed as cell-based. On the procedure: (§1) Spore strips of B. pumilus (ATCC 27142) with 1.9×10^6 spores (SGM Biotech, Bozeman, Mont.) and G. stearothermophilus (ATCC 7953) with 1.9×10^6 spores (SGM Biotech, Bozeman, Mont.) were treated with doses of genipin equivalent to those that sterilized of B. subtilis. B. pumilus conventional spore strips were treated with 1.75 mL of solution and G stearothermophilus mini spore strips were treated with 0.5 mL of solution. Spore strips were treated with 1:1 DMSO:PBS; 2.6 mg, 8.3 mg, 25 mg, and […] genipin per 10^6 spores in 1:1 DMSO:PBS; and 10% formalin (N=4). After treatment for 72 hours spore strips were washed and transferred to soybean-casein medium (Becton Dickinson, Franklin Lanes, N.J.). B. pumilus was incubated at 32.5° C. and G stearothermophilus was incubated at 57.5° C.

The subject of a further data set is B. subtilis spores. Put plainly: Scanning electron microscopy of genipin-treated spores. It is filed as cell-based. As to conditions: 10% and 0.63% genipin in 1:1 DMSO:PBS, 72 hours, room temperature. On the procedure: The morphology of B. subtilis was evaluated using scanning electron microscopy. Spore strips were either untreated, treated with 0.5 mL of sterile 1:1 DMSO:PBS without genipin, or 0.5 mL of sterile 0.63% or 10% genipin in 1:1 DMSO:PBS for 72 hours at room temperature. After treatment, spore strips were washed with sterile water and dehydrated with increasing concentrations of ethanol (70%, 80%, 90%, and 100%) and subjected to critical point drying. The spore strips were mounted onto a stage, sputter coated with gold, and visualized under a scanning electron microscopy (Hitachi S-4500 Cold Field Emission SEM, Hitachi, Ltd., Tokyo, Japan).

The next data set deals with B. pumilus spores. Kind of data set: Spore strip sterilization, soybean-casein medium. Conditions: 72 hours. It is filed as cell-based. As for the experimental part: as §1
Data set [4] has as its system Bacillus subtilis var. niger spores. It is filed as cell-based.
Another data set relates to 3T3 fibroblasts. Conditions: in vitro; cited from earlier work.
For data set [5], the system named is Chinese hamster ovary (CHO-K1) cells. As to conditions: in vitro; cited from earlier work.
For data set [6] the following is noted: cited from earlier work.
Another data set relates to cells in culture. Conditions: 2200 μMolar sterile genipin; cited from earlier work.
Data set [7] deals with fibroblasts. Conditions: cited from earlier work.
For data set [8], the system named is bovine nucleus pulposus cells. Conditions: cells entrapped in chitosan gels crosslinked with 5% genipin; cited from earlier work.
For data set [9], the system named is fibroblasts. As to conditions: cells directly exposed to genipin solution; cited from earlier work.
A further data set concerns osteoblasts. As to conditions: cells directly exposed to genipin solution; cited from earlier work.
For data set [10] the following is noted: cited from earlier work. The source holds these as a separate data set.
In data set [11] the test system is over 40 bacterial (non-spore forms) and fungal species. As to conditions: most 20-40%; cited from earlier work.
Where [12] appears, read: 0.03% genipin in 1:1 DMSO:PBS, 72 hours, room temperature.
The mark [13] stands for this setting: 0.32% genipin in 1:1 DMSO:PBS, 72 hours, room temperature.

Values joined by “and” are separate entries in the source; they are usually repeats but may differ in a detail not shown here. Equal entries are not always repeated. “Also recorded” adds a separate entry of the source. Where two headings read alike, the source gives them in different places. Bounds are passed on as bounds.

As to `C=O` [formalin, reference compound], the spore strip viability/sterility entry in data set [1] (10% formalin, 24 hours, room temperature) is recorded as “orange (sterile)”; in data set [3] (10% formalin, 72 hours), “presence of spore viability”; in data set [3] (10% formalin, 72 hours, listed as 10% formalin), “demonstrated viability”. In [2] (10% formalin), the “colonies at the 1-log reduction level” value is “no colonies”. Besides, in [3] (10% formalin, 72 hours), the “spore strips from which G. stearothermophilus grew” value came to 100%. The “time required to demonstrate viability” value in [3] (10% formalin, 72 hours treatment) was 2.25 ± 0.50 days.
Turning to `COC(=O)C1=CO[C@@H](O)C2C(CO)=CC[C@H]12` (stereo in doubt) [genipin, methyl (1R,2R,6S)-2-hydroxy-9-(hydroxymethyl)-3-oxabicyclo [4.3.0]nona-4,8-diene-5-carboxylate], the “log reduction in spore viability” value in data set [1] (setting [12]) is 5- to 6 log and > 5 log; in [1] (setting [13]), 5- to 6 log and > 5 log; in [1] (0.63% genipin, all doses of DMSO (0-50%), 37° C.), ≥ 6 log; in [1] (0.63%-10% genipin in 1:1 DMSO:PBS, 72 hours, room temperature (confirmatory experiment)), “at least 6 log”; in the data set on B. pumilus spores (2.6 mg-42 mg genipin/10^6 spores in 1:1 DMSO:PBS, room temperature), “at least 6 log”; in data set [3] (2.6 mg-42 mg genipin/10^6 spores in 1:1 DMSO:PBS, 72 hours, room temperature), “at least 6 log”. In addition, the “log reduction in spore viability” value in data set [4] (0.63% genipin in PBS, 37° C.) is given as ≥ 6 log. The spore strips sterile result in data set [1] (setting [12]) was “two of four”; in [1] (setting [13]), “one of four”; in data set [1] (0.63% genipin in 1:1 DMSO:PBS, 72 hours, room temperature (Example 7)) it was “Three of four”. In addition, the spore strip viability/sterility result in data set [1] (0.63% genipin in PBS, 72 hours, room temperature) is “demonstrated viability”; in data set [1] (0.63%, 2%, 6%, 10% genipin in 1:1 DMSO:PBS, 72 hours, room temperature (confirmation, Example 8)) it was “sterilized the spore strips”; in data set [1] (2%-10% genipin in 1:1 DMSO:PBS, 24 hours, room temperature) it was “demonstrated bacterial viability; also recorded: unable to sterilize any spore strips; also recorded: yellow (growth)”. The “genipin dose necessary for eradication of B. subtilis” value in [1] (1:1 DMSO:PBS, 72 hours, room temperature) was “at least 2.6 mg/10^6 spores”. In addition, the spore strips sterilized was 3 of 4 in data set [1] (2% genipin in 1:1 DMSO:PBS, 72 hours); 3 of 4 in data set [1] (6% genipin in 1:1 DMSO:PBS, 72 hours); “all” in data set [1] (10% genipin in 1:1 DMSO:PBS, 72 hours); 4/4 with B. pumilus spores (all genipin doses (2.6-42 mg per 10^6 spores) in 1:1 DMSO:PBS); “Three of 4” in [3] (2.6 mg genipin/10^6 spores in 1:1 DMSO:PBS, 72 hours); 4/4 in data set [3] (8.3 mg genipin/10^6 spores in 1:1 DMSO:PBS, 72 hours). For the same compound, the spore strips sterilized result is “Three of 4” in [3] (25 mg genipin/10^6 spores in 1:1 DMSO:PBS, 72 hours) and 4/4 in data set [3] (42 mg genipin/10^6 spores in 1:1 DMSO:PBS, 72 hours). Also, the “colonies at the 1-log reduction level” value in data set [2] (0.63% genipin in 1:1 DMSO:PBS) is given as “no colonies”; in [2] (2% genipin in 1:1 DMSO:PBS), “no colonies”; in [2] (6% genipin in 1:1 DMSO:PBS) it was “no colonies”; in data set [2] (10% genipin in 1:1 DMSO:PBS), “three 10% genipin-treated spore strips yielded no colonies”. The “log reduction in B. subtilis viability” value in [2] (0.63% genipin in PBS, one week treatment (unpublished pilot data)) stood at 2 log. Besides, the “spore morphology versus untreated spore strips” value in the data set with B. subtilis spores is “no appreciable morphological differences”. The sterile vials in data set [4] (0.63% genipin in 50% DMSO/50% PBS, room temperature (Example 12)) is reported as 2/5; in data set [4] (0.63% genipin, all doses of DMSO (0-50%) in PBS, 37° C.), 5/5. In the data set with 3T3 fibroblasts, the “cytotoxicity compared with glutaraldehyde” value was “substantially less cytotoxic than glutaraldehyde”. For the same compound, the clastogenic response result in [5] is on record as “does not cause clastogenic response”. The “relative solubility in solvents” value in data set [6] (organic solvents versus PBS) is “more soluble in ethanol than in PBS; also recorded: substantially more soluble in organic solvents”. Further, the “solubility in PBS” value in data set [6] (phosphate-buffered saline) is “approximately 1%”. Also, the cell death result in the data set with cells in culture is “complete cell death”. Further, in the data set on fibroblasts [7] (bovine pericardia treated with 0.625% genipin in PBS, within three days), the “fibroblast proliferation on treated tissue” value is reported as “substantial fibroblast proliferation”. The cell viability result in [8] is “up to 87%”. Further, the “concentration sufficient for cytotoxicity” value in the data set on fibroblasts [9] and with osteoblasts was 80-100 ppm each time.
With `O=CCCCC=O` [glutaraldehyde, reference compound], in the data set on fibroblasts [7] (0.625% glutaraldehyde-treated pericardia, after seven days), the “fibroblast proliferation on treated tissue” value is recorded as “no cellular proliferation”.
`C[S+](C)[O-]` [DMSO, dimethyl sulfoxide]: in data set [10] (DMSO washed off or less than 10% DMSO), the toxicity rate is 0.3%. Moreover, the toxicity incidence in [10] (stem cells cryopreserved with 10% DMSO, review of 34,000 transplants) was 1.5%. Moreover, the microbicidal concentration in data set [11] was 8 to 40%.

The record behind these values is patent US20130225669A1 (priority 2012, published 2013).
